{"source": "patent US8652838B2", "about": "“Platensimycin biosynthetic gene cluster of Streptomyces platensis” (Wisconsin Alumni Research Foundation, priority 2007, dated 2014)", "key": {"[1]": {"system": "S. platensis MA7327", "test": "antibiotic sensitivity of S. platensis MA7327", "type": "cell-based, Streptomyces platensis", "source_text": "The inventors have developed an efficient genetic system for in vivo manipulation of PTM/PTN biosynthesis in S. platensis MA7327 via E. coli-S. platensis conjugation. […] Although S. platensis protoplasts can be readily prepared and regenerated with high frequency, introduction of either replicative or integrative plasmid into S. platensis via protoplast-mediated transformation has not been successful (Kieser et al., 2000)."}, "[2]": {"conditions": "animal model studies; cited from earlier work"}, "[3]": {"system": "Streptococcus pneumoniae", "conditions": "cited from earlier work"}, "[4]": {"system": "Escherichia coli", "conditions": "cited from earlier work"}, "[5]": {"system": "S. aureus infection", "conditions": "cited from earlier work"}, "[6]": {"biological_target": "T1, FabH (Staphylococcus aureus, UniProt Q8NXE2)", "T1 sequence (Q8NXE2 1-313)": "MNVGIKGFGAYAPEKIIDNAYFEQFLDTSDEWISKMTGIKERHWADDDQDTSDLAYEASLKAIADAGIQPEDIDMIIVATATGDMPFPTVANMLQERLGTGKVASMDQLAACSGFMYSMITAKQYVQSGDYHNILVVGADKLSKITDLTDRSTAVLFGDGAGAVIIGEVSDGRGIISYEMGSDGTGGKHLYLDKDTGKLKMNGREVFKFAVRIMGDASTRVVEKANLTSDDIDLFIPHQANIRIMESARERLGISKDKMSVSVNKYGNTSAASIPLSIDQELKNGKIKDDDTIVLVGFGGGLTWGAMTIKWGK", "conditions": "cited from earlier work"}, "[7]": {"system": "vancomycin-resistant E. faecium", "conditions": "cited from earlier work"}, "[8]": {"system": "Streptomyces avermitilis", "test": "paper disk susceptibility of S. avermitilis", "type": "cell-based", "conditions": "0.5-4 μg on paper disk", "source_text": "(§1) FIGS. 6A-C: Engineering of S. platensis. (FIG. 6A) Additional biosynthetic intermediates and shunt metabolites isolated from the wild-type S. platensis MA7327 strain. (FIG. 6B) Production of PTM (●) and PTN (♦) by the engineered S. platensis SB12002 (iv) and SB12001 (iii) strains with the wild-type S. platensis MA7327 as a control under two fermentation conditions for PTM (i) and PTM and PTN (ii) production. (FIG. 6C) Susceptibility of S. avermitilis and S. albus J1074 to PTM and PTN: 1, negative controls; 2, 4 μg; 3, 4 μg; 4, 2 μg; 5, 1 μg; 6, 0.5 μg of PTM or PTN on each paper disk.\n(§2) Having large quantity (multiple grams) of PTM and PTN in hand from the overproducers, the inventors systematically examined the sensitivity of a battery of Streptomyces towards PTM or PTN. Remarkably, they have identified strains that are sensitive to both PTM and PTN, as exemplified by Streptomyces avermitilis, or PTN but not PTM, as exemplified by Streptomyces albus J1074 (FIG. 6C). The differential sensitivity of the organisms tested towards PTM and PTN is consistent with the established mode of action for PTM and PTN (i.e., PTM as a FabB/F inhibitor while PTN as a FabB/F and FabH dual inhibitor)—targeting two essential proteins should lead to lower resistance potential than targeting only one. […]"}, "[9]": {"system": "Streptomyces albus J1074", "test": "paper disk susceptibility of S. albus J1074", "type": "cell-based", "conditions": "0.5-4 μg on paper disk", "source_text": "as §1, §2"}, "[10]": {"biological_target": "T1, FabH", "conditions": "cited from earlier work", "remark": "listed apart in the source"}, "[11]": {"system": "mammalian cell", "conditions": "cited from earlier work"}, "[12]": {"system": "DNA, RNA, protein or cell wall biosynthesis", "conditions": "whole-cell labeling; cited from earlier work"}, "[13]": {"biological_target": "T2, FabF (Staphylococcus aureus, UniProt Q5TKS0)", "T2 sequence (Q5TKS0 1-403)": "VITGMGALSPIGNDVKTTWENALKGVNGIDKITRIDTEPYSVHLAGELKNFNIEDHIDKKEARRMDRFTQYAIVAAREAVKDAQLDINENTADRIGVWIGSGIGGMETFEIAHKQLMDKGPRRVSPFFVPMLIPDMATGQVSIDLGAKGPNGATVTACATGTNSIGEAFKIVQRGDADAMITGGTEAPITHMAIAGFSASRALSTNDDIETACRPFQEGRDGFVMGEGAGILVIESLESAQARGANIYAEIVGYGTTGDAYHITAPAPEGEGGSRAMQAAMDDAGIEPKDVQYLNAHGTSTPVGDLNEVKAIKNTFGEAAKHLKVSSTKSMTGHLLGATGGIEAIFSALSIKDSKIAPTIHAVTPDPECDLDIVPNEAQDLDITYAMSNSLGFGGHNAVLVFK", "conditions": "cited from earlier work"}, "[14]": {"system": "S. aureus", "conditions": "cited from earlier work"}, "[15]": {"biological_target": "T2, FabF", "conditions": "14C-radiolabeled malonyl-CoA, polyacrylamide gel electrophoresis; cited from earlier work"}, "[16]": {"system": "lipid biosynthesis in S. aureus", "conditions": "whole-cell labeling; cited from earlier work"}}, "note": "Like-named read-outs stand apart in the source and are kept apart here."}
{"molecule": "NC[C@H]1O[C@H](O[C@H]2[C@H](O)[C@@H](O[C@H]3O[C@H](CO)[C@@H](O)[C@H](N)[C@H]3O)[C@H](N)C[C@@H]2N)[C@H](O)[C@@H](O)[C@@H]1O", "note": "[kanamycin]", "values": [{"measurement": "concentration giving complete inhibition of growth", "setting": "[1]", "value": 25, "unit": "µg/mL"}]}
{"molecule": "C=C(NC(=O)C(=C)NC(=O)c1csc(C2=N[C@@H]3c4csc(n4)[C@H]4NC(=O)c5csc(n5)[C@H]([C@](C)(O)[C@@H](C)O)NC(=O)[C@H]5CSC(=N5)/C(=C/C)NC(=O)[C@H]([C@@H](C)O)NC(=O)c5csc(n5)[C@]3(CC2)NC(=O)[C@H](C)NC(=O)C(=C)NC(=O)[C@H](C)NC(=O)[C@H]([C@@H](C)CC)N[C@@H]2C=Cc3c([C@H](C)O)cc(nc3[C@H]2O)C(=O)O[C@@H]4C)n1)C(N)=O", "note": "[thiostrepton]", "values": [{"measurement": "concentration giving complete inhibition of growth", "setting": "[1]", "value": 10, "unit": "µg/mL"}]}
{"molecule": "C=C1C[C@@]23C=CC(=O)[C@@](C)(CCC(=O)Nc4c(O)ccc(C(=O)O)c4O)[C@@H]2C[C@@H]1CC3", "note": "[platencin]", "values": [{"measurement": "pharmacokinetics", "setting": "[2]", "value": "exceedingly poor pharmacokinetics"}, {"measurement": "antibacterial activity compared to platensimycin", "setting": "[3]; S. pneumoniae", "value": "decreased activity"}, {"measurement": "antibacterial activity compared to platensimycin", "setting": "[4]; efflux-negative E. coli", "value": "increased antibacterial activity"}, {"measurement": "reduction of S. aureus cfu in kidney", "setting": "[5]; mouse, continuous infusion 150 μg/h, over 24 h", "value": 3, "unit": "log"}, {"measurement": "in vivo efficacy", "setting": "[5]; mouse, in vivo", "value": "potent in vivo efficacy"}, {"measurement": "observed toxicity in vivo", "setting": "[5]; mouse, in vivo", "value": "without any observed toxicity"}, {"measurement": "FabH inhibition", "setting": "[6]", "value": "inhibits FabH"}, {"measurement": "antibacterial activity compared to platensimycin", "setting": "[7]", "value": "increased antibacterial activity"}, {"measurement": "sensitivity of Streptomyces avermitilis", "setting": "[8]", "value": "sensitive"}, {"measurement": "sensitivity of Streptomyces albus J1074", "setting": "[9]", "value": "sensitive"}]}
{"molecule": "platensimycin [PTM]", "values": [{"measurement": "clearing S. aureus infection from a mouse model", "setting": "[5]; high doses", "value": "effective in clearing S. aureus infection"}]}
{"molecule": "C[C@]12C[C@@]34C=CC(=O)[C@@](C)(CCC(=O)Nc5c(O)ccc(C(=O)O)c5O)C3[C@H](CC1C4)O2", "note": "(stereo partly shown) [PTM, platensimycin]", "values": [{"measurement": "pharmacokinetics", "setting": "[2]", "value": "exceedingly poor pharmacokinetics"}, {"measurement": "minimal inhibitory concentration", "setting": "[3]", "value": 2.5, "unit": "µM"}, {"measurement": "inhibition of S. aureus FabH", "setting": "[10]", "value": "weak inhibition"}, {"measurement": "antibacterial activity", "setting": "[4]; efflux-negative Escherichia coli", "value": "showed antibacterial activity"}, {"measurement": "effectiveness against Gram-negative Escherichia coli", "setting": "[4]; tolC dependent efflux", "value": "not very effective"}, {"measurement": "antibacterial activity", "setting": "[4]; wild-type E. coli", "value": "not against wild-type E. coli"}, {"measurement": "mammalian cell toxicity", "setting": "[11]", "value": "Low"}, {"measurement": "concentration without inhibition of DNA, RNA, protein or cell wall biosynthesis", "setting": "[12]", "value": "> 500", "unit": "µg/mL"}, {"measurement": "decrease of S. aureus infection", "setting": "[5]; mouse, 100 μg/h intravenously with a continuous pump, over 24 hrs", "value": "10^4-10^5 fold"}, {"measurement": "greater potency than cerulenin as inhibitor of FabF", "setting": "[13]; relative to cerulenin", "value": 200, "unit": "fold"}, {"measurement": "IC50", "setting": "[13]; single enzyme inhibition assays", "value": "< 50", "unit": "nM"}, {"measurement": "minimal inhibitory concentration", "setting": "[14]", "value": 1, "unit": "µM"}, {"measurement": "FabH inhibition", "setting": "[6]", "value": "does not inhibit FabH to any significant extent"}, {"measurement": "preference for FabF inhibition relative to FabH inhibition", "setting": "[15]", "value": 838, "unit": "fold"}, {"measurement": "sensitivity of Streptomyces avermitilis", "setting": "[8]", "value": "sensitive"}, {"measurement": "IC50 inhibition of lipid biosynthesis", "setting": "[16]", "value": 0.1, "unit": "µg/mL"}]}
{"molecule": "CN[C@@H]1[C@@H](O[C@H]2O[C@H](CO)[C@@H](N)[C@H](O)[C@H]2O)OC2C[C@@H](N)[C@@H](O[C@H]3[C@H](O)[C@@H](O)[C@H](N)C[C@@H]3N)OC2[C@@H]1O", "note": "(stereo partly shown) [apramycin]", "values": [{"measurement": "concentration giving complete inhibition of growth", "setting": "[1]", "value": 25, "unit": "µg/mL"}]}
{"molecule": "CC[C@H]1OC(=O)[C@H](C)[C@@H](O[C@H]2C[C@@](C)(OC)[C@@H](O)[C@H](C)O2)[C@H](C)[C@@H](O[C@@H]2O[C@H](C)C[C@H](N(C)C)[C@H]2O)[C@](C)(O)C[C@@H](C)C(=O)[C@H](C)[C@@H](O)[C@]1(C)O", "note": "[erythromycin]", "values": [{"measurement": "concentration giving complete inhibition of growth", "setting": "[1]", "value": 10, "unit": "µg/mL"}]}
